Measured values as given in PMC12123037, “Cleavage of CAD by caspase-3 determines the cancer cell fate during chemotherapy” (Nature Communications, 2025).

Biological target: T1, CAD (GFP-CAD; assayed as GFP-CAD-D1371A) (Homo sapiens, UniProt P27708, D1371A)
T1 construct: full-length CAD subcloned into Not I/Bgl II sites of pEGFP-N1-His (GFP fusion, GFP kept); expressed in HEK-293T; RIPA lysate diluted 150x in MST buffer, not purified
Experiment: microscale thermophoresis, GFP fusion in diluted HEK-293T lysate
Type: binding
Description: microscale thermophoresis, GFP fusion in diluted HEK-293T lysate on CAD (GFP-CAD; assayed as GFP-CAD-D1371A) | direct interaction between RMY-186 and CAD-D1371A protein in vitro, with a Kd of […]

T1 sequence (P27708 whole entry D1371A, the tested form may be a part): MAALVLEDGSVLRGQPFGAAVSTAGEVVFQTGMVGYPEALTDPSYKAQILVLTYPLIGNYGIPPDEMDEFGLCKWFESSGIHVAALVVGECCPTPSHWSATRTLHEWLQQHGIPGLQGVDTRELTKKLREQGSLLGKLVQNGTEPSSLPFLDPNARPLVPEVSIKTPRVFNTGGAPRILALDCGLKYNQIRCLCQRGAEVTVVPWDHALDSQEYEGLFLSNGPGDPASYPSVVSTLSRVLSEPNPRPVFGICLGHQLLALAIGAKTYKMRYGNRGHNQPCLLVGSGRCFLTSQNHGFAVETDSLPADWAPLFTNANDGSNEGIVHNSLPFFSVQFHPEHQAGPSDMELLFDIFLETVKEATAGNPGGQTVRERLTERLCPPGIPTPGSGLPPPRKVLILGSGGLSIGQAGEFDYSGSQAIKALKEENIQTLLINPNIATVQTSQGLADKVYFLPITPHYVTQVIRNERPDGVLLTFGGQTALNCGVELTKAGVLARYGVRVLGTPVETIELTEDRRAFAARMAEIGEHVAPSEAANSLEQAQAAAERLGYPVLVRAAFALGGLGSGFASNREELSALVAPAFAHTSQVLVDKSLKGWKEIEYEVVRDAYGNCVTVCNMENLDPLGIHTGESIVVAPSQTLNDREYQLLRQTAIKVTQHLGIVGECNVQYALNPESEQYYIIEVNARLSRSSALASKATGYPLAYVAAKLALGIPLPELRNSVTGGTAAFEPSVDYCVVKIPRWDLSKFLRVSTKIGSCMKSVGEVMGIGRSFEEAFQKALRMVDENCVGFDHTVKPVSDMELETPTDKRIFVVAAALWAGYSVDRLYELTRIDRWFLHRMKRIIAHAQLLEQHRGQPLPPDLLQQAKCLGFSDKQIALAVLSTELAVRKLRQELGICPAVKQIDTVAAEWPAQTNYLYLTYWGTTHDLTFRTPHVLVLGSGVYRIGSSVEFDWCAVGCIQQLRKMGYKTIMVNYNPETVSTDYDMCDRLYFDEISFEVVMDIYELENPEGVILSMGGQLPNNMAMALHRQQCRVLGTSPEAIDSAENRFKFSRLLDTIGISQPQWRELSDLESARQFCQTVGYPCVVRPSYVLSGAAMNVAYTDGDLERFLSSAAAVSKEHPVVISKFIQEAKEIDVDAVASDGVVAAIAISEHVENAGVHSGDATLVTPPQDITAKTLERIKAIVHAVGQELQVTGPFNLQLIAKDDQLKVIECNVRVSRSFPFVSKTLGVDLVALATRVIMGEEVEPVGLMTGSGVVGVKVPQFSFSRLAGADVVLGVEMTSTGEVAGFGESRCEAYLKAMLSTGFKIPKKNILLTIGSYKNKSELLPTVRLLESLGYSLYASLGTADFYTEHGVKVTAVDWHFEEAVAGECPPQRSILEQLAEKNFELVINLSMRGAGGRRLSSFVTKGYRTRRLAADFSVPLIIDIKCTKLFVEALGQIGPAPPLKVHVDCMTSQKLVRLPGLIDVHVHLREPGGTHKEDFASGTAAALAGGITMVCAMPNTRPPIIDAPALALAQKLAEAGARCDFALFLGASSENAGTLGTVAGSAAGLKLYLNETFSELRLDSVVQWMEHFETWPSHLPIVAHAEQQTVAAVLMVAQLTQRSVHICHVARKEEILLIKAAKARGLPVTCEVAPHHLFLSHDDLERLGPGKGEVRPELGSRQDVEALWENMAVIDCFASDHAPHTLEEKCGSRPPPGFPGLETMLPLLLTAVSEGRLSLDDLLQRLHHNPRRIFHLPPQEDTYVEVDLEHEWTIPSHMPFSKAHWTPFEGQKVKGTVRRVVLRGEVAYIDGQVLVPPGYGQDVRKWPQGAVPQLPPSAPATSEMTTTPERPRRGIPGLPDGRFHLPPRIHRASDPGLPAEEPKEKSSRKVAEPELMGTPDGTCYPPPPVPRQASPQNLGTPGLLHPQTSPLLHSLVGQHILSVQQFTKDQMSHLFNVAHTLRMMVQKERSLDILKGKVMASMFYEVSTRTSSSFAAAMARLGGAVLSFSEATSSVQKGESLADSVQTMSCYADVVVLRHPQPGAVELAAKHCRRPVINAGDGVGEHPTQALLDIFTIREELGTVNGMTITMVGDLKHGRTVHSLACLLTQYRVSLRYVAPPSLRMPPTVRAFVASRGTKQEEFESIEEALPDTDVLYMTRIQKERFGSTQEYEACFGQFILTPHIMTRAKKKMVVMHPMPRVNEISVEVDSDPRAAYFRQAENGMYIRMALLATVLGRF

Compound: O=c1c(O)c(N2CCN(Cc3cccc(Br)c3)CC2)oc2ccccc12 [compound 9, 2-(4-(3-bromobenzyl)-piperazin-1-yl)-3-hydroxy-4H-chromen-4-one]
- Kd: 6.78 µM
